Legend:
real human skin = details: mixture of peptide and lidocaine, 2 mM sample, 6 hours; compared with known peptide (TAT) and with lidocaine alone; FIG. 1
Procedure: A mixture of skin-permeable peptides consisting of any one amino acid sequence selected from SEQ ID NO: 5 to SEQ ID NO: 8 and derivatives thereof of SEQ ID NO: 1 to SEQ ID NO: 4, or the known peptide and lidocaine, or lidocaine alone was treated to evaluate skin permeability.
In detail, to evaluate the skin permeability, real human skin was used and the skin permeability was measured by a Franz diffusion cell assay, and the permeation amount of lidocaine was measured by HPLC and then compared.
Human skin used in this experiment was purchased from UMC Science Co., Ltd., Korea, and phosphate-buffered saline (PBS, Gibco, USA) was purchased from Sigma-Aldrich. […]
The temperature of the receptor fluid was maintained constant at 32° C.±1° C., and the humidity was maintained at 30-70%, followed by stabilization for 30 minutes. […] 6 hours later, sampling was performed through a sampling arm of the receptor, and for quantification, STD (100 μM standard sample) and the sample were analyzed through HPLC, and the permeability was expressed as a percentage (%) as compared to STD.

actual human skin = details: mixture of peptide and caffeine vs caffeine alone, measured over time; FIG. 2
Procedure: A mixture of the skin-permeable peptide of SEQ ID NO: 8 and caffeine or caffeine alone was treated to evaluate skin permeability thereof.
In detail, Franz diffusion cell assay was performed using actual human skin as in Example 1, and the permeation amount of caffeine was measured by HPLC and then compared (FIG. 2).

human skin [1] = details: mixture of peptide and fluorescein liposome (180 nm) vs liposome alone, 3 hours; FIG. 4
Procedure: Aqueous solutions were then obtained through Franz diffusion cell assay, and FITC fluorescence values were analyzed using a fluorescence microplate reader (SpectraMax i3, Molecular Devices, USA).
Fluorescein was liposomized using a liposome kit purchased from Sigma Aldrich (MO, USA) and liposomizing Fluorescein was used as liposome for the skin permeability tests.

HDF cells = experiment: Collagen production in HDF cells (Collagen type I ELISA); format: cell-based; details: mixture of peptide and KTTKS peptide vs KTTKS alone, 48 hours; FIG. 5
Procedure: In order to examine the efficacy improvement of the bioactive material due to the skin permeation effect of the active ingredient by the peptide of SEQ ID NO: 8, HDF cells were treated with a mixture of KTTKS peptide, which is a bioactive material, and the peptide of SEQ ID NO: 8, or treated with KTTKS peptide alone, and collagen production amounts were analyzed using an ELISA assay.
HDF cells used in this experiment were purchased from Thermo Fisher Scientific (Waltham, MA, USA). HDF cells were cultured in Dulbecco's Modified Eagle's Medium (DMEM) supplemented with 10% fetal bovine serum (FBS), 100 U/mL penicillin, and 100 μg/mL streptomycin (Gipco, Life Technologies, Grand Island, NY, USA) and cultured in a 5% CO2 incubator at 37° C.
HDF cells at a density of 2×10^5 cells/mL were dispensed in a volume of 250 μL in 48 wells and allowed to stabilize for 24 hours. Samples were treated at different concentrations and cultured in a CO2 incubator for 48 hours, and then each culture was obtained. […] 100 μL of TMB substrate was dispensed therein, left in the dark for 30 minutes, and treated with 50 μL of a stop solution, and then absorbance was measured at 450 nm with a microspectrophotometer (Molecular Device, Sunnyvale, CA, USA).

human skin [2] = details: mixed with peptide vs treated alone; FIG. 3
Procedure: The FITC conjugation method was performed in accordance with the manufacturer's instructions by purchasing an FITC conjugation kit (Lightning-Link® (ab188285)) from Abcam (Cambridge, MA, USA).

Substance: H-RKLFRKILKYLR-OH [SEQ ID NO: 8, H2N-[Arg-Lys-Leu-Phe-Arg-Lys-Ile-Leu-Lys-Tyr-Leu-Arg]-CO2H]
- skin permeation amount of lidocaine (real human skin): highest effect
- skin permeation amount of caffeine (actual human skin): significantly superior
- skin permeation effect of the liposome (human skin [1]): remarkably increased
- production amount of collagen (HDF cells): significantly increased
- skin permeability effect of 3 kDa FITC-conjugated collagen (human skin [2]): strong skin permeability effects
- skin permeability effect of 30 kDa FITC-conjugated collagen (human skin [2]): strong skin permeability effects
- skin permeability effect of 300 kDa FITC-conjugated collagen (human skin [2]): strong skin permeability effects
- skin permeability effect of 800 kDa hyaluronic acid (HA) (human skin [2]): strong skin permeability effects

— patent US20250073337A1, “NOVEL SKIN-PERMEABLE PEPTIDE, COMPOSITION INCLUDING THE SAME FOR SKIN AND MUCOUS MEMBRANE, AND USE THEREOF” (CELLICON LAB INC., priority 2022, published 2025)
